This test in a line: Cell-Based Assay of NHE-3 Activity: Rat NHE-3-mediated Na+-dependent H+ antiport was measured using a modification of the pH sensitive dye method originally reported by Tsien (Proc. Natl. Acad. Sci. USA. (1984) 81(23): 7436-7440). Opossum kidney (OK) cells were obtained from the ATCC and propagated per their instructions. The rat NHE-3 gene was introduced into OK cells via electroporation, seeded into 96 well plates and grown overnight. Medium was aspirated from the wells, cells were washed twice with NaCl-HEPES buffer (100 mM NaCl, 50 mM HEPES, 10 mM glucose, 5 mM KCl, 2 mM CaCl2, 1 mM MgCl2, pH 7.4), then incubated for 30 min at room temperature with NH4Cl-HEPES buffer (20 mM NH4Cl, 80 mM NaCl, 50 mM HEPES, 5 mM KCl, 2 mM CaCl2, 1 mM MgCl2, pH 7.4) containing 5 uM BCECF-AM (Invitrogen). Cells were washed twice with Ammonium free, Na+-free HEPES (100 mM choline, 50 mM HEPES, 10 mM glucose, 5 mM KCl, 2 mM CaCl2, 1 mM MgCl2, pH 7.4) and incubated in the same buffer for 10 minutes at room temperature to lower intracellular pH. […] Initial rates were plotted as the average 3-6 replicates, and pIC50 values were estimated using GraphPad Prism.

A word on the IC50: it is the concentration that gives 50% inhibition.

Bounds are passed on as bounds.

As to `CN1Cc2c(Cl)cc(Cl)cc2[C@H](c2ccc(S(=O)(=O)NCCOCCOCCOCCNC(=O)NCCCCNC(=O)NCCOCCOCCOCCNS(=O)(=O)c3ccc([C@@H]4CN(C)Cc5c(Cl)cc(Cl)cc54)cc3)cc2)C1` (single isomer, unassigned), the IC50 is under 100 nM. With `CN1Cc2c(Cl)cc(Cl)cc2[C@H](c2ccc(S(=O)(=O)NCCOCCOCCOCCNC(=O)NCCOCCOCCOCCNS(=O)(=O)c3ccc([C@@H]4CN(C)Cc5c(Cl)cc(Cl)cc54)cc3)cc2)C1` (single isomer, unassigned), the IC50 is under 100 nM.

Values taken from ChEMBL document CHEMBL5727484, “Compounds and methods for inhibiting NHE-mediated antiport in the treatment of disorders associated with fluid retention or salt overload and gastrointestinal tract disorders” (2020).
